# From patent US6737383B1, “Herbicidal oxadiazolidines” (priority 1999, dated 2004)
# Key:
# bedstraw = test: Test B pre/postemergence bedstraw; format: in vivo, Galium aparine; settings: for Bedstraw plant response rating: scale of 0 to 10 where 0 is no effect and 10 is complete control
# In short: (§1)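 Herbicidal effect was estimated by eye on a ten-point control scale after plants spent twelve to sixteen days in a greenhouse following soil or foliar treatment. Foliar sprays targeted plants at one to four leaves; all doses were formulated in a non-phytotoxic solvent with surfactant.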
# cocklebur = test: Test B pre/postemergence cocklebur; format: in vivo, Xanthium strumarium
# In short: as §1
# soybean = test: Test B pre/postemergence soybean; format: in vivo, Glycine max
# In short: as §1
# sugar beet = test: Test B pre/postemergence sugar beet; format: in vivo, Beta vulgaris
# In short: as §1
# blackgrass = test: Test B pre/postemergence blackgrass; format: in vivo, Alopecurus myosuroides
# In short: as §1
# rape = test: Test B pre/postemergence rape; format: in vivo, Brassica napus
# In short: as §1
# crabgrass = test: Test B pre/postemergence crabgrass; format: in vivo, Digitaria sanguinalis
# In short: as §1
# corn = test: Test B pre/postemergence corn; format: in vivo, Zea mays
# In short: as §1
# morningglory = test: Test B pre/postemergence morningglory; format: in vivo, Ipomoea hederacea
# In short: as §1
# giant foxtail = test: Test B pre/postemergence giant foxtail; format: in vivo, Setaria faberii
# In short: as §1
# wild oat = test: Test B pre/postemergence wild oat; format: in vivo, Avena fatua
# In short: as §1
# bamyardgrass = test: Test B flood test barnyardgrass; format: in vivo, Echinochloa crus-galli
# In short: (§2)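 Read-out is a visual response score from 0 (no effect) to 10 (complete control), assigned by comparison with untreated controls. Treatment was applied at the 2-leaf stage, and plants stayed in the greenhouse for twelve to sixteen days before scoring.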
# smallflower flatsedge = test: Test B flood test smallflower flatsedge; format: in vivo, Cyperus difformis
# In short: as §2
# duck salad = test: Test B flood test duck salad; format: in vivo, Heteranthera limosa
# In short: as §2
# rice = test: Test B flood test rice; format: in vivo, Oryza sativa
# In short: as §2
# surinam grass = test: Test B pre/postemergence surinam grass; format: in vivo, Brachiaria decumbens
# In short: as §1
# pigweed = test: Test B pre/postemergence pigweed; format: in vivo, Amaranthus retroflexus
# In short: as §1
# wheat = test: Test B pre/postemergence wheat; format: in vivo, Triticum aestivum
# In short: as §1
# purple nutsedge = test: Test B pre/postemergence purple nutsedge; format: in vivo, Cyperus rotundus
# In short: as §1
# velvetleaf = test: Test B pre/postemergence velvetleaf; format: in vivo, Abutilon theophrasti
# In short: as §1
# [1] = Preemergence, Rate 62 g/ha, scale of 0 to 10 where 0 is no effect and 10 is complete control
# [2] = Preemergence, Rate 250 g/ha, scale of 0 to 10 where 0 is no effect and 10 is complete control
# [3] = Preemergence, Rate 500 g/ha, scale of 0 to 10 where 0 is no effect and 10 is complete control
# [4] = Rate 62 g/ha, Postemergence, scale 0 to 10 (0 no effect, 10 complete control)
# [5] = Rate 125 g/ha, Postemergence, scale of 0 to 10 where 0 is no effect and 10 is complete control
# [6] = Rate 250 g/ha, Postemergence, scale of 0 to 10 where 0 is no effect and 10 is complete control
# [7] = Rate 500 g/ha, Postemergence, scale 0 to 10, 0 no effect, 10 complete control
# [8] = Rate 62 g/ha, headed Pre-emergence (flood test species), scale 0 to 10 (0 no effect, 10 complete control)
# [9] = Rate 125 g/ha, Pre-emergence, flood test species, scale 0 to 10 where 0 is no effect and 10 is complete control
# [10] = Rate 250 g/ha, Pre-emergence, flood-test species, scale 0 to 10, 0 is no effect, 10 is complete control
# [11] = Rate 500 g/ha, Pre-emergence, flood test species, scale 0 to 10 (0 no effect, 10 complete control)
structure (smiles),measurement,setting,value
CC(C)C(C)n1c(=O)on(C(=O)N(c2ccc(F)cc2)C(C)C)c1=O (stereo not shown) [Compound 316],Bedstraw plant response rating,"bedstraw; Preemergence, Rate 62 g/ha",0
same,Bedstraw plant response rating (0 to 10 scale),"bedstraw; Preemergence, Rate 125 g/ha",0
same,Bedstraw plant response rating,"bedstraw; Preemergence, Rate 250 g/ha",3
same,Bedstraw plant response rating,"bedstraw; Preemergence, Rate 500 g/ha",6
same,Bedstraw plant response rating,"bedstraw; Rate 125 g/ha, Postemergence",2
same,Cocklebur plant response rating,cocklebur; [1],0
same,Cocklebur plant response rating,cocklebur; [2],0
same,Cocklebur plant response rating,cocklebur; [3],2
same,Cocklebur plant response rating,cocklebur; [4],0
same,Cocklebur plant response rating,cocklebur; [5],0
same,"Plant response rating, Cocklebur",cocklebur; [6],0
same,Cocklebur plant response rating,cocklebur; [7],0
same,Soybean plant response rating,soybean; [1],0
same,Soybean plant response rating (0 to 10 scale),"soybean; Preemergence, Rate 125 g/ha",0
same,Soybean plant response rating,soybean; [2],0
same,Soybean plant response rating,soybean; [3],0
same,Soybean plant response rating,soybean; [4],3
same,Soybean plant response rating,soybean; [5],3
same,"Plant response rating, Soybean",soybean; [6],4
same,Sugarbeets plant response rating,sugar beet; [1],0
same,Sugarbeets plant response rating (0 to 10 scale),"sugar beet; Preemergence, Rate 125 g/ha",0
same,Sugarbeets plant response rating,sugar beet; [2],0
same,Sugarbeets plant response rating,sugar beet; [3],4
same,Sugarbeets plant response rating,sugar beet; [4],0
same,Sugarbeets plant response rating,sugar beet; [5],0
same,"Plant response rating, Sugarbeets",sugar beet; [6],0
same,Blackgrass plant response rating,blackgrass; [1],8
same,Blackgrass plant response rating (0 to 10 scale),"blackgrass; Preemergence, Rate 125 g/ha",10
same,Blackgrass plant response rating,blackgrass; [2],10
same,Blackgrass plant response rating,blackgrass; [3],10
same,Blackgrass plant response rating,blackgrass; [4],0
same,Blackgrass plant response rating,blackgrass; [5],1
same,"Plant response rating, Blackgrass",blackgrass; [6],4
same,Blackgrass plant response rating,blackgrass; [7],7
same,Rape plant response rating,rape; [1],0
same,Rape plant response rating (0 to 10 scale),"rape; Preemergence, Rate 125 g/ha",0
same,Rape plant response rating,rape; [2],4
same,Rape plant response rating,rape; [3],4
same,Rape plant response rating,rape; [4],0
same,Rape plant response rating,rape; [5],0
same,"Plant response rating, Rape",rape; [6],1
same,Crabgrass plant response rating,crabgrass; [1],6
same,Crabgrass plant response rating (0 to 10 scale),"crabgrass; Preemergence, Rate 125 g/ha",8
same,Crabgrass plant response rating,crabgrass; [2],8
same,Crabgrass plant response rating,crabgrass; [3],10
same,Crabgrass plant response rating,crabgrass; [4],0
same,Crabgrass plant response rating,crabgrass; [5],0
same,"Plant response rating, Crabgrass",crabgrass; [6],0
same,Corn plant response rating,corn; [1],0
same,Corn plant response rating (0 to 10 scale),"corn; Preemergence, Rate 125 g/ha",0
same,Corn plant response rating,corn; [2],0
same,Corn plant response rating,corn; [3],5
same,Corn plant response rating,corn; [4],0
same,Corn plant response rating,corn; [5],0
same,"Plant response rating, Corn",corn; [6],0
same,Corn plant response rating,corn; [7],0
same,Morningglory plant response rating,morningglory; [1],0
same,Morningglory plant response rating (0 to 10 scale),"morningglory; Preemergence, Rate 125 g/ha",0
same,Morningglory plant response rating,morningglory; [2],0
same,Morningglory plant response rating,morningglory; [3],0
same,Morningglory plant response rating,morningglory; [4],3
same,Morningglory plant response rating,morningglory; [5],4
same,"Plant response rating, Morningglory",morningglory; [6],5
same,Giant foxtail plant response rating,giant foxtail; [1],9
same,Giant foxtail plant response rating (0 to 10 scale),"giant foxtail; Preemergence, Rate 125 g/ha",10
same,Giant foxtail plant response rating,giant foxtail; [2],10
same,Giant foxtail plant response rating,giant foxtail; [3],10
same,Giant foxtail plant response rating,giant foxtail; [4],0
same,Giant foxtail plant response rating,giant foxtail; [5],0
same,"Plant response rating, Giant foxtail",giant foxtail; [6],2
same,Wild oats plant response rating,wild oat; [1],4
same,Wild oats plant response rating (0 to 10 scale),"wild oat; Preemergence, Rate 125 g/ha",4
same,Wild oats plant response rating,wild oat; [2],6
same,Wild oats plant response rating,wild oat; [3],6
same,Wild oats plant response rating,wild oat; [4],0
same,Wild oats plant response rating,wild oat; [5],0
same,"Plant response rating, Wild oats",wild oat; [6],2
same,Barnyardgrass plant response rating,bamyardgrass; [8],3
same,Barnyardgrass plant response rating,bamyardgrass; [9],6
same,Barnyardgrass plant response rating,bamyardgrass; [10],9
same,Barnyardgrass plant response rating,bamyardgrass; [11],9
same,S. Flatsedge plant response rating,smallflower flatsedge; [8],0
same,S. Flatsedge plant response rating,smallflower flatsedge; [9],0
same,S. Flatsedge plant response rating,smallflower flatsedge; [10],9
same,S. Flatsedge plant response rating,smallflower flatsedge; [11],9
same,Ducksalad plant response rating,duck salad; [8],0
same,Ducksalad plant response rating,duck salad; [9],0
same,Ducksalad plant response rating,duck salad; [10],3
same,Ducksalad plant response rating,duck salad; [11],0
same,Rice plant response rating,rice; [8],0
same,Rice plant response rating,rice; [9],0
same,Rice plant response rating,rice; [10],1
same,Rice plant response rating,rice; [11],0
same,B. signalgrass plant response rating,surinam grass; [1],6
same,"B. signalgrass plant response rating (0 to 10 scale, 0 is no effect, 10 is complete control)","surinam grass; Preemergence, Rate 125 g/ha",7
same,B. signalgrass plant response rating,surinam grass; [2],9
same,B. signalgrass plant response rating,surinam grass; [3],9
same,B. signalgrass plant response rating,surinam grass; [4],0
same,B. signalgrass plant response rating,surinam grass; [5],0
same,"Plant response rating, B. signalgrass",surinam grass; [6],0
same,B. signalgrass plant response rating,surinam grass; [7],2
same,Redroot pigweed plant response rating,pigweed; [1],4
same,Redroot pigweed plant response rating (0 to 10 scale),"pigweed; Preemergence, Rate 125 g/ha",6
same,Redroot pigweed plant response rating,pigweed; [2],10
same,Redroot pigweed plant response rating,pigweed; [3],10
same,Redroot pigweed plant response rating,pigweed; [4],2
same,Redroot pigweed plant response rating,pigweed; [5],2
same,"Plant response rating, Redroot pigweed",pigweed; [6],3
same,Wheat plant response rating,wheat; [1],0
same,Wheat plant response rating (0 to 10 scale),"wheat; Preemergence, Rate 125 g/ha",0
same,Wheat plant response rating,wheat; [2],2
same,Wheat plant response rating,wheat; [3],2
same,Wheat plant response rating,wheat; [4],0
same,Wheat plant response rating,wheat; [5],0
same,"Plant response rating, Wheat",wheat; [6],2
same,Nutsedge plant response rating,purple nutsedge; [1],0
same,Nutsedge plant response rating (0 to 10 scale),"purple nutsedge; Preemergence, Rate 125 g/ha",0
same,Nutsedge plant response rating,purple nutsedge; [4],0
same,Nutsedge plant response rating,purple nutsedge; [5],0
same,"Plant response rating, Nutsedge",purple nutsedge; [6],0
same,Velvetleaf plant response rating,velvetleaf; [1],0
same,Velvetleaf plant response rating (0 to 10 scale),"velvetleaf; Preemergence, Rate 125 g/ha",2
same,Velvetleaf plant response rating,velvetleaf; [2],3
same,Velvetleaf plant response rating,velvetleaf; [3],6
same,Velvetleaf plant response rating,velvetleaf; [4],0
same,Velvetleaf plant response rating,velvetleaf; [5],0
same,"Plant response rating, Velvetleaf",velvetleaf; [6],2
